According to publication PMC6642116, “Structural and functional analyses of hepatitis B virus X protein BH3-like domain and Bcl-xL interaction” (Nature Communications, 2019):

Columns and labels:
Bcl-xL = target: T1, Bcl-xL (Homo sapiens, UniProt Q07817, DEL27-82); conditions: cited from earlier work
T1 construct: 6xHis-SUMO (N, cleaved yes); made in house; host or cells: Escherichia coli BL21(DE3)

HBV in HepG2.2.15 cells = assay: Combination of HBx118–127 and ABT-263 on HBV in HepG2.2.15 cells; format: cell-based; conditions: ABT-263 1 μM, HBx118–127 via PEP-1; for HBV DNA: HepG2.2.15 culture medium, 48 h in total; for HBV DNA / HBeAg in culture medium / HBsAg in culture medium / Intracellular HBcAg: sequential: ABT-263 12 h then HBx118–127 36 h; for HBeAg in culture medium / HBsAg in culture medium / Intracellular HBcAg: HepG2.2.15, 48 h in total
Procedure: In all panels, from left to right (bars 1–5), cells were treated with placebo buffer, HBx118–127 only, ABT-263 only, HBx118–127 and ABT-263 together, and ABT-263, followed by HBx118–127, respectively. The cells in bars 1–4 were treated for 48 h, whereas the cells in bar 5 were first treated by ABT-263 for 12 h, followed by treatment with HBx118–127 for another 36 h. The final concentration of ABT-263 was 1 μM in the culture medium, while HBx-aa118–127 was delivered by PEP-1 nanoparticles. After 48-h treatment, the protein expression levels of HBV S-antigen (HBsAg) (a) and HBV e-antigen (HBeAg) (b) in the culture medium, the intracellular protein expression level of HBV core antigen (HBcAg) (c), and the HBV viral DNA tilter (d) in the culture medium of HepG2.2.15 cells were measured (Methods). The results are shown as fold changes compared to the values obtained from the cells treated with the placebo buffer. Data shown represent mean ± SD. Significance is indicated on the top. Not significant (ns): *P < 0.05, **P < 0.01, ***P < 0.001; two-tailed unpaired t tests (n = 3 biologically independent samples). Source data are provided as a Source Data file
The levels of HBsAg, HBeAg, and HBcAg expression were measured by chemiluminescence, using Commercial Assay Kit (Wantai, Beijing, China). Northern blot analysis of HBV RNA, Southern blot analysis of HBV DNA, and real-time PCR quantification of HBV DNA are described in the Supplementary Methods.

caspase-3 (CASP3) = assay: Caspase-3 proteolytic activation in HepG2.2.15 cells (immunoblot); format: cell-based; conditions: HepG2.2.15, 2 days
Procedure: (§1) Fig. 6 The HBx-aa118–127 peptide, but not ABT-263, inhibits HBV replication and transcription in HepG2.2.15 cells. a HepG2.2.15 cells were treated with 125, 250, 500, and 1000 nM of ABT-263 for 2 days. Cytoplasmic HBV viral particles were isolated and the viral DNA replication intermediates were quantified (Methods). The results represent the fold change of the replicative intermediates in HepG2.2.15 cells from the indicated treatments, compared with those without treatment. b HepG2.2.15 cells were treated with the indicated concentrations of ABT-263 for 2 days. The lysate was analyzed by immunoblotting using antibodies to caspase-3 (CASP3) and GAPDH (glyceraldehyde 3-phosphate dehydrogenase). c, d The HBx-aa113–135, HBx-aa118–127, or the control peptides were delivered into HepG2.2.15 cells using PEP-1 nanoparticles (Methods). The levels of HBV DNA (c) and the levels of HBV S-antigen (HBsAg) expression (d) in culture medium collected from HepG2.2.15 cells were measured (Methods). The results are shown as fold change compared to that of the control peptide. e–g HepG2-NTCP cells were transfected with HBx118–127 peptide with concentration of […], and 50 μg/ml or unrelated control peptide during HBV infection (multiplicity of infection (MOI) = 200), respectively. e HBV e-antigen (HBeAg), f HBV DNA, and g cell viability were measured at day 8 after HBV infection. […]

[1] = system: HBV DNA in HepG2.2.15 cells; assay: HBV DNA replication in HepG2.2.15 cells treated with ABT-263 or ABT-737; format: cell-based; conditions: for HBV DNA: 2 days; for inhibition of HBV DNA replication (in words): 125-1000 nM, 48 h
Procedure: as §1, with “infection. Data shown represent mean ± SD. Significance is indicated on the top. Not significant (ns): *P < 0.05, **P < 0.01; two-tailed unpaired t tests (n = 3 biologically independent samples). Source data are provided as a Source Data file” for “infection.”
ABT-263 and ABT-737, the picomolar BH3 mimetics, were purchased from Apexbt Technology LLC (Houston, TX, USA). HepG2.2.15 cells were treated with 125, 250, 500, and 1000 nM of ABT-263 or ABT-737 for 48 h. Cytoplasmic HBV viral particles and HBV DNA were then isolated for quantification.
ABT-263 or ABT-737 for two days. Cytoplasmic HBV viral particles were isolated and the viral DNA replication intermediates were quantified by real-time PCR using a specific primer set targeting HBS ORF (Materials and Methods). The results represent the fold change of the replicative intermediates in HepG2.2.15 cells from the indicated treatments, compared with those without treatment. b HepG2.2.15 cells were treated with the indicated concentrations of ABT-263 or ABT-737 for two days. The lysate was analyzed by immunoblotting using antibodies to Caspase-3 (CASP3) and GAPDH.
Data shown represent mean ± SD. Significance is indicated on the top. Not significant (ns): P > 0.05; two-tailed unpaired t-tests. Source data are provided as a Source Data […]
(1 picture or pasted object on this page, not shown here)

T1 sequence (Q07817 with tags, fused parts or gaps DEL27-82 limits assumed): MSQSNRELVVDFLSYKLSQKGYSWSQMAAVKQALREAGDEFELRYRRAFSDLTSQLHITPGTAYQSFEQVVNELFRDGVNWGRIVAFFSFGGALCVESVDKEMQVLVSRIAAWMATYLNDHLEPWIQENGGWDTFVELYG

SMILES	reported Bcl-xL inhibitor potency (in words) (Bcl-xL)	proteolytic activation of caspase-3 (in words) (caspase-3 (CASP3))	HBV DNA ([1]; 125 nM, replicate 1)	HBV DNA ([1]; 125 nM, replicate 2)	HBV DNA ([1]; 125 nM, replicate 3)	HBV DNA ([1]; 250 nM, replicate 1)	HBV DNA ([1]; 250 nM, replicate 2)	HBV DNA ([1]; 250 nM, replicate 3)	HBV DNA ([1]; 500 nM, replicate 1)	HBV DNA ([1]; 500 nM, replicate 2)	HBV DNA ([1]; 500 nM, replicate 3)	HBV DNA ([1]; 1000 nM, replicate 1)	HBV DNA ([1]; 1000 nM, replicate 2)	HBV DNA ([1]; 1000 nM, replicate 3)	inhibition of HBV DNA replication (in words) [1]	other results
CC1(C)CCC(c2ccc(Cl)cc2)=C(CN2CCN(c3ccc(C(=O)NS(=O)(=O)c4ccc(N[C@H](CCN5CCOCC5)CSc5ccccc5)c(S(=O)(=O)C(F)(F)F)c4)cc3)CC2)C1 [ABT-263]	picomolar	induced significant proteolytic activation of caspase-3	0.966 fold change to non-treatment	1.035 fold change to non-treatment	1.028 fold change to non-treatment	1.021 fold change to non-treatment	0.966 fold change to non-treatment	0.946 fold change to non-treatment	1.021 fold change to non-treatment	0.973 fold change to non-treatment	0.966 fold change to non-treatment	1.000 fold change to non-treatment	0.940 fold change to non-treatment	0.940 fold change to non-treatment	did not inhibit HBV DNA replication	HBV DNA (HBV in HepG2.2.15 cells; replicate 1): 1.089 fold-change to control; HBV DNA (HBV in HepG2.2.15 cells; replicate 2): 1.052 fold-change to control; HBV DNA (HBV in HepG2.2.15 cells; replicate 3): 0.924 fold-change to control; HBeAg in culture medium (HBV in HepG2.2.15 cells; replicate 1): 1.047 fold-change to control; HBsAg in culture medium (HBV in HepG2.2.15 cells; replicate 1): 0.956 fold-change to control; Intracellular HBcAg (HBV in HepG2.2.15 cells; replicate 1): 0.979 fold-change to control; HBeAg in culture medium (HBV in HepG2.2.15 cells; replicate 2): 0.911 fold-change to control; HBsAg in culture medium (HBV in HepG2.2.15 cells; replicate 2): 0.938 fold-change to control; Intracellular HBcAg (HBV in HepG2.2.15 cells; replicate 2): 0.909 fold-change to control; HBeAg in culture medium (HBV in HepG2.2.15 cells; replicate 3): 0.937 fold-change to control; HBsAg in culture medium (HBV in HepG2.2.15 cells; replicate 3): 0.832 fold-change to control; Intracellular HBcAg (HBV in HepG2.2.15 cells; replicate 3): 0.921 fold-change to control; effect on HBV replication (in words) (HBV in HepG2.2.15 cells; HepG2.2.15): did not affect HBV replication
CN(C)CC[C@H](CSc1ccccc1)Nc1ccc(S(=O)(=O)NC(=O)c2ccc(N3CCN(Cc4ccccc4-c4ccc(Cl)cc4)CC3)cc2)cc1[N+](=O)[O-] [ABT-737]	picomolar	induced significant proteolytic activation of caspase-3	1.000 fold change to non-treatment	0.986 fold change to non-treatment	0.979 fold change to non-treatment	1.110 fold change to non-treatment	1.035 fold change to non-treatment	1.007 fold change to non-treatment	0.953 fold change to non-treatment	1.000 fold change to non-treatment	1.021 fold change to non-treatment	0.993 fold change to non-treatment	1.021 fold change to non-treatment	1.021 fold change to non-treatment	did not inhibit HBV DNA replication	
